Assay results as given in publication PMC5500234 (Chemistry (Weinheim an der Bergstrasse, Germany), 2016).

Target: LeuT (bacterial leucine transporter) (Aquifex aeolicus, UniProt O67854)
Test: scintillation proximity assay
Assay type: binding
Settings: labelled compound; room temperature, […] days; DDM or MNA-C12/C13/C14

## CC(C)C[C@H](N)C(=O)O [[3H]-leucine]
  scintillation proximity assay (SPA), radioligand binding: measuring the ability to bind [^3H]-leucine via scintillation proximity assay (SPA)
